From ChEMBL document CHEMBL5365497, “Developing Novel Coumarin-Containing Azoles Antifungal Agents by the Scaffold Merging Strategy for Treating Azole-Resistant Candidiasis” (J Med Chem, 2023)
Converted amounts (≈) assume the structure as drawn. The source made the active and inactive calls. The calls are words filed in the database; no cut-off is given here.

Key:
[1] = Subacute toxicity in female KM mouse assessed as liver inflammation at 100 mg/kg administered via gavage daily for 14 days; assay type: organism-based; conditions: in vivo, po, 336 h, time 14 day
Candida albicans [2] = test: Antifungal activity against fluconazole-resistant Candida albicans 904 assessed as fungal growth inhibition measured for 48 hrs by CLSI based microdilution method; assay type: functional
[3] = molecular target: T1, Lanosterol 14-alpha demethylase (Candida albicans (strain SC5314 / ATCC MYA-2876) (Yeast), UniProt P10613); test: Inhibition of CYP51 in Candida albicans SC5314 assessed as increase in lanosterol level at 0.03125 ug/ml incubated for 24 hrs by GC-MS analysis; conditions: at 0.03125 µg/mL
T1 sequence (P10613 whole entry): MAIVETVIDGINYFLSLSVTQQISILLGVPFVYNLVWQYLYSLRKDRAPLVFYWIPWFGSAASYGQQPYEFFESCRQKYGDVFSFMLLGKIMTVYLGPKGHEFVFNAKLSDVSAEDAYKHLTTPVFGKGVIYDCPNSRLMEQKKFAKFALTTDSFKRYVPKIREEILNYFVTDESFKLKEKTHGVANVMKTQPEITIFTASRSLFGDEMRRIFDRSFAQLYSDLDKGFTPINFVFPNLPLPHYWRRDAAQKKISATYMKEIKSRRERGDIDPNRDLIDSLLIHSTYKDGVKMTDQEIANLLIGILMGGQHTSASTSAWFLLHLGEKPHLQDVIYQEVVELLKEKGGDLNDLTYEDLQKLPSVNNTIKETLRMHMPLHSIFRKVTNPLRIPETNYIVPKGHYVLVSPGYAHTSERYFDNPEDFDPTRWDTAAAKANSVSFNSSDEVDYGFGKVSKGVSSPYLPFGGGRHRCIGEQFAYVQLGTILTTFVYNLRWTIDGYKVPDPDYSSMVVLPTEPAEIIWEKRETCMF

[4] = Subacute toxicity in KM mouse assessed as liver inflammation at 100 mg/kg administered via gavage daily for 7 days; assay type: organism-based; conditions: in vivo, po, 168 h, time 7 day
Candida albicans [5] = test: Antifungal activity against fluconazole-resistant Candida albicans 904 assessed as reduction in EFG1 expression at 16 ug/ml incubated for 12 hrs by RT-PCR analysis; assay type: functional, organism-based; conditions: dose 16.0 µg/ml
[6] = Stability in mouse plasma assessed as half life at 1 uM measured for 180 mins by LC-MS/MS analysis; assay type: ADME, cell-free
Candida albicans [7] = test: Antifungal activity against Candida albicans CPCC400616 assessed as reduction in TEC1 expression at 2 ug/ml incubated for 12 hrs by RT-PCR analysis; assay type: functional, organism-based; conditions: dose 2.0 µg/ml
Candida albicans [8] = test: Antibiofilm activity against Candida albicans CPCC400616 incubated for 24 hrs by XTT reduction assay; assay type: functional, organism-based; conditions: dose <= 128.0 µg/ml
[9] = Subacute toxicity in KM mouse assessed as mortality at 100 mg/kg administered via gavage daily for 14 days; assay type: organism-based; conditions: in vivo, po, 336 h, time 14 day
Candida albicans [10] = test: Antifungal activity against fluconazole-resistant Candida albicans CaR assessed as fungal growth inhibition by CLSI based microdilution method; assay type: functional
[11] = Subacute toxicity in KM mouse assessed as liver damage at 100 mg/kg administered via gavage daily for 7 days; assay type: organism-based; conditions: in vivo, po, 168 h, time 7 day
Candida albicans [12] = test: Antifungal activity against fluconazole-resistant Candida albicans 901 assessed as fungal growth inhibition by CLSI based microdilution method; assay type: functional
[13] = molecular target: T1, Lanosterol 14-alpha demethylase; test: Inhibition of CYP51 in Candida albicans SC5314 assessed as ergosterol level at 0.03125 ug/ml incubated for 24 hrs by GC-MS analysis (reference value: 97.58 %); design: scale not given: the % may be the effect or the level left; conditions: at 0.03125 µg/mL
Candida albicans [14] = test: Antifungal activity against fluconazole-resistant Candida albicans 904 assessed as reduction in CPH1 expression at 16 ug/ml incubated for 12 hrs by RT-PCR analysis; assay type: functional, organism-based; conditions: dose 16.0 µg/ml
Nakaseomyces glabratus = test: Antifungal activity against Candida glabrata assessed as fungal growth inhibition by CLSI based microdilution method; assay type: functional
[15] = molecular target: T1, Lanosterol 14-alpha demethylase; test: Inhibition of CYP51 in Candida albicans SC5314 assessed as increase in obtusifoliol level at 0.03125 ug/ml incubated for 24 hrs by GC-MS analysis; conditions: at 0.03125 µg/mL
[16] = Acute toxicity in fasted KM mouse assessed as body weight change at 1000 mg/kg administered via gavage measured for 7 days; assay type: organism-based; conditions: in vivo, po, 168 h, time 7 day
Candida albicans [17] = test: Antifungal activity against Candida albicans CPCC400616 assessed as reduction in EFG1 expression at 2 ug/ml incubated for 12 hrs by RT-PCR analysis; assay type: functional, organism-based; conditions: dose 2.0 µg/ml
Candida albicans [18] = test: Antifungal activity against fluconazole-resistant Candida albicans 904 assessed as reduction in TEC1 expression at 16 ug/ml incubated for 12 hrs by RT-PCR analysis; assay type: functional, organism-based; conditions: dose 16.0 µg/ml
[19] = Subacute toxicity in female KM mouse assessed as kidney damage at 100 mg/kg administered via gavage daily for 14 days; assay type: organism-based; conditions: in vivo, po, 336 h, time 14 day
Candida albicans [20] = test: Antifungal activity against fluconazole-resistant Candida albicans 904 assessed as decrease in MDR1 expression at 16 ug/ml measured after 16 hrs by RT-PCR analysis; assay type: functional, organism-based; conditions: dose 16.0 µg/ml
[21] = Cytotoxicity against mouse J774.A1 cells assessed as cell growth inhibition by MTT assay; assay type: toxicity, cell-based
Candida albicans [22] = test: Antifungal activity against Candida albicans SC5314 assessed as destruction of cell membrane at 16 ug/ml incubated for 24 hrs by TEM analysis; assay type: functional, organism-based; conditions: dose 16.0 µg/ml
Cytochrome P450 2D6 = Cytochrome P450 2D6 (Homo sapiens, UniProt P10635); test: Inhibition of CYP2D6 in human liver microsomes using dextromethorphan as substrate preincubated for 5 mins followed by NADPH addition by LC-MS/MS analysis; assay type: ADME, Microsome
Cytochrome P450 2D6, sequence (P10635 whole entry): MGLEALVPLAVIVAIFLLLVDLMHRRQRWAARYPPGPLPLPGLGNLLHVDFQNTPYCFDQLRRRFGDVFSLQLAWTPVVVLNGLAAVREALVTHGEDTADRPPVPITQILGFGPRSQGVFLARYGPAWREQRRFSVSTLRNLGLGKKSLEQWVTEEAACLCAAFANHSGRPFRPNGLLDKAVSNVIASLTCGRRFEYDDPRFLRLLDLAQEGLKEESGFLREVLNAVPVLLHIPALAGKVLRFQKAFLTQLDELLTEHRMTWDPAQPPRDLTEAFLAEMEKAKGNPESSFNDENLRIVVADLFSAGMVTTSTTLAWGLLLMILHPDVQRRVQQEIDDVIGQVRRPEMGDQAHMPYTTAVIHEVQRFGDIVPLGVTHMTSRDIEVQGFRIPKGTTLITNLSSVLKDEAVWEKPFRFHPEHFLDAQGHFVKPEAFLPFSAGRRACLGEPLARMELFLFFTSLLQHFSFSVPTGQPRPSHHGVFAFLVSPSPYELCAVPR

Candida tropicalis = test: Antifungal activity against Candida tropicalis assessed as fungal growth inhibition by CLSI based microdilution method; assay type: functional
Candida albicans [23] = test: Antifungal activity against fluconazole-resistant Candida albicans 904 infected in ICR mouse assessed as reduction in fungal kidney burden by measuring CFU administered intraperitoneally measured after 5 days; assay type: functional, organism-based; conditions: dose 0.6 mg/kg, route ip, time 5.0 day
Candida albicans [24] = test: Antifungal activity against Candida albicans SC5314 assessed as leakage of endogenous material within cells at 16 ug/ml incubated for 24 hrs by TEM analysis; assay type: functional, organism-based; conditions: dose 16.0 µg/ml

For `O=c1ccc2ccc(COC(Cn3ccnc3)c3ccc(Cl)cc3Cl)cc2o1` (configuration not stated), the Activity [1] was “Toxic”, the MFC (Candida albicans [2]) was 8 µg/mL (≈ 19.3 µM) and the “inhibition (INH)” value [3] was “Active”. For the same compound, the Activity [4] was “Toxic”, the Activity (Candida albicans [5]) was “Active” and the half-life at 1 µM [6] was > 360 min. For the same compound, the Activity (Candida albicans [7]) was “Active”, the Activity (Candida albicans [8]) was “Dose-Dependent Effect” and the Activity [9] was “Non-Toxic”. For the same compound, the MIC (Candida albicans [10]) was 1 µg/mL (≈ 2.41 µM), the Activity [11] was “Toxic” and the MIC (Candida albicans [12]) was 4 µg/mL (≈ 9.63 µM). For the same compound, the Activity [13] was 1.54%, the Activity (Candida albicans [14]) was “Active” and the MIC (Nakaseomyces glabratus) was 0.5 µg/mL (≈ 1.2 µM). For the same compound, the “inhibition (INH)” value [15] was “Active”, the Activity [16] was “Non-Toxic” and the Activity (Candida albicans [17]) was “Active”. The Activity (Candida albicans [18]) was “Active”, the Activity [19] was “Non-Toxic” and the Activity (Candida albicans [20]) was “Active”. The IC50 [21] was 24.4 µM, the Activity (Candida albicans [22]) was “Active” and the IC50 (Cytochrome P450 2D6) was 1140 nM. For the same compound, the MIC (Candida tropicalis) was 0.25 µg/mL (≈ 0.602 µM), the Activity (Candida albicans [23]) was “Dose-Dependent Effect” and the Activity (Candida albicans [24]) was “Active”.
